For data set [1] the following is noted: cited from earlier work; for allergic responses / skin irritation / sensitization: human, in vivo.
Data set [2] in a line: In vitro water/solvent partitioning (dispersion, centrifugation, HPLC of supernatant). The class given is physicochemical. The protocol:
The method s for determining in vitro water/solvent partitioning was as follows:
Individual dispersions of the above were prepared in the following solvents:
(1) Distilled water at 23° C.
(2) Distilled water at 70° C.
The dispersions were made under nitrogen and protected from light, using high shear agitation to yield particles of less than 0.5 u in diameter. The concentrations in each case were calculated to yield 4,000 i.u. per ml. The dispersions were centrifuged until clear supernatant liquids were obtained. Aliquouts of 50 uL of the clear supernatants were injected into the HPLC columns and the resulting peaks were evaluated, using a methanol solution of retinyl palmitate as the standard.

For data set [3] the following is noted: human, in vivo. The protocol:
Ten subjects, 4 females and 6 males, ranging in age from 18 to 27 years participated with informed consent.
The products were applied to alternate inner wrist surfaces, in areas of 2.5×1.0 cm, rubbed into the skin for aproximately 5-10 seconds, using a gloved finger as an applicator and applying equal pressure in all applications. […] Mixing, applications and assays were performed in subdued light in order to decrease photodecomposition. The application sites were loosely covered with protective aluminum foil. After 30 minutes of exposure, the surface products were removed by rinsing with alcohol followed by air-drying. A strip of 3M Tape was then applied to the application site in a slightly larger rectangle than the site and removed. This stripping process was repeated for a total of 15 times and was designed to removed the entire stratum corneum. The combined strips were eluted with methanol and the eluates were assayed for RP by HPLC, using a Lichrosorb Si 60/5 micron column, after separation and saponification according to a modified USP XXI procedure.

For data set [4] the following is noted: present practices of use and concentration; cited from earlier work.
The conditions of data set [5]: topical; cited from earlier work.
Data set [6] concerns fetuses. To be noted: rat; topical administration to the mother; cited from earlier work.
Data set [7] deals with fetuses. The conditions noted are these: rabbit; topical administration to the mother; cited from earlier work.
Where [8] appears, read: n-Hexane at 250° C. (so in the source), dispersion calculated to 4,000 i.u. per ml.
Where [9] appears, read: n-Hexane, dispersion calculated to 4,000 i.u. per ml.

Molecules are shown by their SMILES. Where two headings read alike, the source gives them in different places.

With `CC1=C(/C=C/C(C)=C/C=C/C(C)=C\C(=O)O)C(C)(C)CCC1` [Accutane®, 13-cis-Retinoic acid], the birth defects entry in data set [1] (children of women treated during pregnancy) is given as “extensive birth defects in children of women treated with the drug during pregnancy”. In addition, the “allergic responses / skin irritation / sensitization” value in data set [1] is given as “Allergic responses have also been reported”.

For the compound `CCCCCCCCCCCCCCCC(=O)OC/C=C(C)/C=C/C=C(C)/C=C/C1=C(C)CCCC1(C)C` [RP, retinyl palmitate], in data set [2], the “solubility in n-hexane (in words)” value was “good solubility” and the “solubility in water (in words)” value is given as “no solubility in water”. Further, the “Absorption, both HPLC peaks (or absence of peak)” value (from here on “Absorption, both HPLC peaks”) in data set [2] (Water at 23° C., dispersion calculated to 4,000 i.u. per ml) is “No peak”. In data set [2] (Water at 70° C., dispersion calculated to 4,000 i.u. per ml), the “Absorption, both HPLC peaks” value is “No Peak”. Moreover, in data set [2] (setting [8]), the “Absorption, both HPLC peaks” value is reported as 0.10 and the “HPLC Peak #2” value was 0.070. Besides, in data set [2] (setting [9]), the Absorption equivalent is ~4,000 i.u and the “HPLC Peak #1” value is on record as 0.031. Further, in data set [2] (water and hexane), the “partitioning / migration into water and hexane (in words)” value was “no migration into water with some fractionation into hexane”. Besides, the “% Retinyl Palmitate Absorbed, average +/- Std. Deviation” value in data set [3] is listed as 0.84 +/- 0.21%. The “safety as cosmetic ingredient” value in data set [4] was “safe as cosmetic ingredients”.

In the case of `CC1=C(/C=C/C(C)=C/C=C/C(C)=C/C(=O)O)C(C)(C)CCC1` [Tretinoin, All-trans-retinoic acid], the “treatment of photoaged skin” value in data set [5] is given as “effective for the treatment of photoaged skin”. Moreover, the fetal abnormalities result with fetuses [6] was “abnormalities in rat and rabbit fetuses”; in the data set on fetuses [7], “abnormalities in rat and rabbit fetuses”. Also, the “allergic responses / skin irritation / sensitization” value in data set [1] is “severe skin irritation, sensitization and allergic responses”.

For the compound `CC(C=CC1=C(C)CCCC1(C)C)=CC=CC(C)=CCO` [retinol, 3,7-dimethyl-9-(2,6,6-trimethyl-1-cyclohexen-1-yl)-2,4,6,8-nonatetraen-1-ol], the “safety as cosmetic ingredient” value in data set [4] was “safe as cosmetic ingredients”.

The values above are taken from US5124313A, “Methods of improved skin care and the treatment of dermatological conditions” (priority 1989, dated 1992).
